Here are results for 13 compounds from patent US12473266B2, “Benzoxazole and related compounds useful as chaperone-mediated autophagy modulators” (Albert Einstein College of Medicine, priority 2018, dated 2025).

In data set [1] the test system is CMA activity (KFERQ-Dendra reporter) in NIH 3T3 fibroblasts. In words: Photoconvertible CMA reporter (KFERQ-Dendra) assay, fluorescent puncta per cell. The format is cell-based. Particulars: NIH 3T3 KFERQ-Dendra; for effect on the number of fluorescent puncta per cell: result in words. Here is the method:
The photoactivatable CMA reporter assay was constructed by inserting a sequence of 21 amino acid of Ribonuclease A bearing the CMA-targeting motif in the N-terminus multicloning site of the photoactivatable protein mCherry1 or the photoswitchable protein Dendra 2.
NIH 3T3 fibroblasts were stably transduced with a photoconvertible CMA reporter, KFERQ-Dendra and were photoswitched by exposure to a […] (constant current) LED (Norlux, 405 nm) for 10 minutes and at the desired times fixed in 3% formaldehyde. Test cells are exposed to the indicated concentrations of the compounds, e.g. for 12 hours or 24 hours. Cells are imaged, e.g., by using high content microscopy (Operetta, Perkin Elmer) or by capturing images with an Axiovert 200 fluorescence microscope (Zeiss) with apotome and equipped with a 63×1.4 NA oil objective lens and red (ex. 570/30 nm, em. 615/30 nm), cyan (ex. 365/50 nm and em. 530/45 nm) and green (ex. 475/40 nm and em. 535/45 nm) filter sets (Chroma). Images were acquired with a high-resolution CCD camera after optical sectioning through the apotome. CMA activity is measured as the average number of fluorescent puncta (CMA active lysosomes) per cell. Values are expressed relative to values in untreated cells that were assigned an arbitrary value of 1 and are mean of >2,500 cells counted per condition. The S.D. in all instances was <0.01% mean value.

Another data set can be described thus: in vitro. Here is the method:
Microsome stability is determined in human, rat, and mouse, liver microsomes.
Compound at 3 μM final concentration along with 0.5 mg/mL microsome protein and 1 mM NADPH was incubated for 0, 5, 15, 30 and 60 min. As a negative control, test compound is incubated with microsomes in the absence of NADPH. Samples are quenched with methanol and centrifuged for 25 min at 2500 rpm to precipitate proteins. Supernatants are analyzed (N=3) by LC-MS./MS. The ln peak area ratio (compound peak area/internal standard peak area) is plotted against time and the gradient of the line determined the elimination rate constant [k=(−1)(slope)].
R^2 is the correlation coefficient of the linear regression for the determination of kinetic constant. T1/2 is the half life and CLint (mic) is the intrinsic clearance. CLint(liver)=CLint (mic)*mg microsomal protein/g liver weight*g liver weight/kg body weight. Liver weight/kg body weight is 20 g/kg for human.

Structures are written as SMILES.

`O=C(Nc1ccc(-c2nc3ccc(Cl)cc3o2)cc1)C(F)(F)F` [Cmp. 3, N-(4-(6-chlorobenzo[d]oxazol-2-yl)phenyl)-2,2,2-trifluoroacetamide]: in data set [1], the “effect on the number of fluorescent puncta per cell” value (shortened to “effect on the number … per cell”) was “positive effect”.

Take `O=C(Nc1ccc(-c2nc3ccc(Cl)cc3o2)cc1)c1ccc(F)cc1` [Cmp. 6, N-(4-(6-chlorobenzo[d]oxazol-2-yl)phenyl)-4-fluorobenzamide]: the “effect on the number … per cell” value in data set [1] is “positive effect”.

Consider `O=C(O)Cc1ccccc1Nc1c(Cl)cccc1Cl` [Diclofenac], for which the “Remaining (T = 60 min)” value in the data set “in vitro” (human, microsomes, 1 h, 3 μM) is listed as 6.8%.

As to `Clc1ccc2c(c1)OCC(c1ccc(-c3ccccc3)cc1)=N2` [Cmp. A], in “in vitro” (human, microsomes, 3 μM), the CLint(mic) is 36.6 µL/min/mg. Also, in “in vitro” (human, microsomes, 1 h, 3 μM), the “Remaining (T = 60 min)” value is listed as 30.1%.

Regarding `CC(=O)Nc1ccc(-c2nc3ccc(Cl)cc3o2)cc1` [Cmp. 2, N-(4-(6-chlorobenzo[d]oxazol-2-yl)phenyl)acetamide], the “CMA activity, average number of fluorescent puncta (CMA active lysosomes) per cell, relative to untreated cells (=1)” value was determined as 2.72 in data set [1] (column 'Time' = 5), 2.63 in data set [1] (column 'Time' = 10), 3.40 in data set [1] (column 'Time' = 20) and 5.12 in data set [1] (column 'Time' = 30).

Turning to `O=S(=O)(Nc1ccc(-c2nc3ccc(Cl)cc3o2)cc1)C(F)(F)F` [Cmp. 8, N-(4-(6-chlorobenzo[d]oxazol-2-yl)phenyl)-1,1,1-trifluoromethanesulfonamide], the “effect on the number … per cell” value in data set [1] is “positive effect”.

In the case of `O=C(Nc1ccc(-c2ccc(-c3nc4cc(Cl)ccc4o3)cc2)cc1)C(F)(F)F` [Cmp. 14, N-(4′-(5-chlorobenzo[d]oxazol-2-yl)-[1,1′-biphenyl]-4-yl)-2,2,2-trifluoroacetamide], in data set [1], the “effect on the number … per cell” value is given as “positive effect”.

Regarding `Clc1ccc2nc(-c3ccc(-c4ccccc4)cc3)oc2c1` [Cmp. 1, 2-([1,1′-biphenyl]-4-yl)-6-chlorobenzo[d]oxazole], in “in vitro” (human, microsomes), the CLint scaled at 3 μM was < 8.6 mL/min/kg. The half-life at 3 μM in “in vitro” (human, microsomes) is > 2.42 h. Further, the CLint(mic) in “in vitro” (human, microsomes, 3 μM) is < 9.6 µL/min/mg. Besides, the “Remaining (T = 60 min)” value in “in vitro” (human, microsomes, 1 h, 3 μM) turned out to be 83.4%. The “CMA activity, average number of fluorescent puncta (CMA active lysosomes) per cell, relative to untreated cells (=1)” value was 2.43 in data set [1] (column 'Time' = 5), 2.16 in data set [1] (column 'Time' = 10), 2.98 in data set [1] (column 'Time' = 20) and 3.22 in data set [1] (column 'Time' = 30).

For `O=C(Nc1ccc(-c2nc3cc(Cl)ccc3o2)cc1)C(F)(F)F` [Cmp. 13, N-(4-(5-chlorobenzo[d]oxazol-2-yl)phenyl)-2,2,2-trifluoroacetamide], in data set [1], the “effect on the number … per cell” value is given as “positive effect”.

As for `C[C@]12CC[C@H]3[C@@H](CCC4=CC(=O)CC[C@@]43C)[C@@H]1CC[C@@H]2O` [Testosterone], the “Remaining (T = 60 min)” value in “in vitro” (human microsomes, 60 min incubation) came out at 4.6%.

`FC(F)(F)c1ccc(-c2ccc(-c3nc4ccc(Cl)cc4o3)cc2)cc1` [Cmp. 10, 6-chloro-2-(4′-trifluoromethyl-[1,1′-biphenyl]-4-yl)benzo[d]oxazole]: in data set [1], the “effect on the number … per cell” value was “positive effect”.

With `CC(C)CC(=O)Nc1ccc(-c2nc3ccc(Cl)cc3o2)cc1` [Cmp. 5, N-(4-(6-chlorobenzo[d]oxazol-2-yl)phenyl)-3-methylbutanamide], in data set [1], the “effect on the number … per cell” value was “positive effect”.

`O=S(=O)(Nc1ccc(-c2nc3ccc(Cl)cc3o2)cc1)c1ccc(F)cc1` [Cmp. 7, N-(4-(6-chlorobenzo[d]oxazol-2-yl)phenyl)-4-fluorobenzenesulfonamide]: in data set [1], the “effect on the number … per cell” value is recorded as “positive effect”.

Broadly, the CLint scaled is a measure of how fast metabolising enzymes remove a compound, apart from limits set by blood flow. Read a high CLint scaled as faster metabolism. By half-life is commonly meant the time needed for the level to fall by half in the phase considered. Lower therefore signals fast loss.
